Data from patent US8163917B2, “Azaindoles useful as inhibitors of Janus kinases” (Vertex Pharmaceuticals Incorporated, priority 2006, dated 2012).

Columns and labels:
JAK-2 enzyme = JAK-2 enzyme (Homo sapiens, UniProt O60674); assay: JAK2 Inhibition Assay; format: biochemical; conditions: 12 μM ATP, 15 μM poly(Glu)4Tyr
Description: (§1) Compounds were screened for their ability to inhibit JAK3 using the assay shown below. Reactions were carried out in a kinase buffer containing 100 mM HEPES (pH 7.4), 1 mM DTT, 10 mM MgCl2, 25 mM NaCl, and 0.01% BSA. Substrate concentrations in the assay were 5 μM ATP (200 uCi/μmole ATP) and 1 μM poly(Glu)4Tyr. Reactions were carried out at 25° C. and 1 nM JAK3.
(§2) To each well of a 96 well polycarbonate plate was added 1.5 μl of a candidate JAK3 inhibitor along with 50 μl of kinase buffer containing […] and 10 μM ATP. This was then mixed and 50 μl of kinase buffer containing 2 nM JAK3 enzyme was added to start the reaction. After 20 minutes at room temperature (25° C.), the reaction was stopped with 50 μl of 20% trichloroacetic acid (TCA) that also contained 0.4 mM ATP. The entire contents of each well were then transferred to a 96 well glass fiber filter plate using a TomTek Cell Harvester. After washing, 60 μl of scintillation fluid was added and ^33P incorporation detected on a Perkin Elmer TopCount.
The assays were as described above in Example 3 except that JAK-2 enzyme was used, the final poly(Glu)4Tyr concentration was 15 μM, and final ATP concentration was 12 μM.

JAK3 = molecular target: T1, JAK3 (Homo sapiens, UniProt P52333); assay: JAK3 Inhibition Assay; format: biochemical; conditions: 5 μM ATP, 1 μM poly(Glu)4Tyr, 1 nM JAK3, 25° C.
T1 sequence (P52333 1-1124): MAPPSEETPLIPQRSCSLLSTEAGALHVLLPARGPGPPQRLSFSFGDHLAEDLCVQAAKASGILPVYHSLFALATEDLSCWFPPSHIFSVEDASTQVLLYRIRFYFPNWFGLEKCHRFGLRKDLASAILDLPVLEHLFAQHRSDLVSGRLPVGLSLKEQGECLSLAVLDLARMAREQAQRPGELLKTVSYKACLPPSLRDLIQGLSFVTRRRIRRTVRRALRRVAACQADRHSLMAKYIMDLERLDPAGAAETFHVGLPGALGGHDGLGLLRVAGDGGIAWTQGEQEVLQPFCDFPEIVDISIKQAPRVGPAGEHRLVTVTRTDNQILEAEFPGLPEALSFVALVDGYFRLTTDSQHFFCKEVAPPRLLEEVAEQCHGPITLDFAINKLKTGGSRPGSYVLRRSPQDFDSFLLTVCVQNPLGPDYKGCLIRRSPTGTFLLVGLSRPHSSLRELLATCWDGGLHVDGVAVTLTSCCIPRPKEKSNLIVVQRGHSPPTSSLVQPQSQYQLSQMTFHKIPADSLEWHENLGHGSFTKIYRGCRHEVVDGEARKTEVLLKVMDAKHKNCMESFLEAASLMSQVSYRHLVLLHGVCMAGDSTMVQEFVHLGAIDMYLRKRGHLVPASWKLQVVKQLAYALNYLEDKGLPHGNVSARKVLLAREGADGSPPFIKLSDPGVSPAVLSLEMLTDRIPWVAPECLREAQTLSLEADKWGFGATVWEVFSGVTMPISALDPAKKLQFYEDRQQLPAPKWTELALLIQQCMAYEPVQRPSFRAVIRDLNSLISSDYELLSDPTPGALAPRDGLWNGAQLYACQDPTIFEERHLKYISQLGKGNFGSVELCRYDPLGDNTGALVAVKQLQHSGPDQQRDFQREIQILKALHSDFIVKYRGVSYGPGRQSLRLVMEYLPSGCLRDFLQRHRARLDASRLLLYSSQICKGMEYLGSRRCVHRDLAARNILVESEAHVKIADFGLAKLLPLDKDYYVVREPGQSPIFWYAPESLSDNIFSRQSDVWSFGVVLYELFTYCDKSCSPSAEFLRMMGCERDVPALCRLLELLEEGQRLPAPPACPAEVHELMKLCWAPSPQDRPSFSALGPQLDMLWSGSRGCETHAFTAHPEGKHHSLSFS
Description: as §1, §2

Sequence of JAK-2 enzyme (O60674 whole entry): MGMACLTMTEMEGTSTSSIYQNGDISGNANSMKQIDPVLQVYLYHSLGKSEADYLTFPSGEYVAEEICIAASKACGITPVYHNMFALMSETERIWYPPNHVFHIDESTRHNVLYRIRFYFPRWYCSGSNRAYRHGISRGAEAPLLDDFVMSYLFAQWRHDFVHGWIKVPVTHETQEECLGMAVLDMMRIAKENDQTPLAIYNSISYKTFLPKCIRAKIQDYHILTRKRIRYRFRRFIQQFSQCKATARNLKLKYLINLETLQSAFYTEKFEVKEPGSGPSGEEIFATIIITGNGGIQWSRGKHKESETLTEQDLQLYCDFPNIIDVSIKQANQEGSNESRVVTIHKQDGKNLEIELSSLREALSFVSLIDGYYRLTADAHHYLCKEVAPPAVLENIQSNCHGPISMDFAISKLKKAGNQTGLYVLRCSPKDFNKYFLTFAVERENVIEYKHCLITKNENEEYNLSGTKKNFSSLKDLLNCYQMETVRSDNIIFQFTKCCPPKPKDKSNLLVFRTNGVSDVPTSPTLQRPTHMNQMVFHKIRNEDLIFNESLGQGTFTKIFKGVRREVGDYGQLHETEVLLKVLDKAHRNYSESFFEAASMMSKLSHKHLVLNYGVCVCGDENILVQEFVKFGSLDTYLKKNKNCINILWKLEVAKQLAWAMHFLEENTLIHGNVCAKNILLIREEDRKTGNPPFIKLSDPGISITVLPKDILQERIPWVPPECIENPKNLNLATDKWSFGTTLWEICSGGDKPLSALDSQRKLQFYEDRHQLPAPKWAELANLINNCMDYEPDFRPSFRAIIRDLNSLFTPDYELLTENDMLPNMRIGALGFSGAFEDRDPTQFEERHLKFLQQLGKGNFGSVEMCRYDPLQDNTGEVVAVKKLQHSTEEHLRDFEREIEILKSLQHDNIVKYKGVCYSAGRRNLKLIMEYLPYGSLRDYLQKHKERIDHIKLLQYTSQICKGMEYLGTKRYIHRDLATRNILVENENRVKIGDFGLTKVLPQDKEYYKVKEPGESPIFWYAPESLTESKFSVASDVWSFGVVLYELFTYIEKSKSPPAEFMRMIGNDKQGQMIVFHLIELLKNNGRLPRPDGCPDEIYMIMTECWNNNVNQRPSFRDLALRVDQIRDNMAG

## C[C@H]1CCN(c2nc(-c3c[nH]c4ncc(Cl)cc34)ncc2F)[C@@H]1C(=O)NCC(F)(F)F [Compound 9]
JAK-2 enzyme
  Ki: ≥ 0.5 µM

## CC(C)C[C@@H](Nc1nc(-c2cn(C)c3ncc(Cl)cc23)ncc1F)C(=O)NCC(F)(F)F [Compound 22]
JAK3
  Ki: ≥ 0.1 µM
JAK-2 enzyme
  Ki: ≥ 0.5 µM

## COC(=O)c1cc(N2CCC[C@@H]2C(=O)NCC(F)(F)F)nc(-c2c[nH]c3ncc(Cl)cc23)n1 [Compound 35]
JAK3
  Ki: ≥ 0.1 µM
JAK-2 enzyme
  Ki: ≥ 0.5 µM

## O=C(NCC(F)(F)F)C1COCCN1c1nc(-c2c[nH]c3ncc(Cl)cc23)ncc1F (stereo not drawn) [Compound 38]
JAK-2 enzyme
  Ki: ≥ 0.5 µM

## O=C(O)c1cnc(-c2c[nH]c3ncc(Cl)cc23)nc1N1CCC[C@@H]1C(=O)NCC(F)(F)F [Compound 56]
JAK3
  Ki: ≥ 0.1 µM
JAK-2 enzyme
  Ki: ≥ 0.5 µM

## CCOC(=O)c1cnc(-c2c[nH]c3ncc(Cl)cc23)nc1N1CCC[C@@H]1C(=O)NCC(F)(F)F [Compound 57]
JAK-2 enzyme
  Ki: ≥ 0.5 µM

## O=C(NCC(F)(F)F)[C@@H]1CCCCN1c1nc(-c2c[nH]c3ncc(Cl)cc23)ncc1F [Compound 68]
JAK3
  Ki: ≥ 2 µM
JAK-2 enzyme
  Ki: ≥ 5 µM

## O=C(NC1CC1)[C@H]1CCCN1c1nc(-c2c[nH]c3ncc(Cl)cc23)ncc1F [Compound 177]
JAK3
  Ki: ≥ 0.1 µM

## CCCNC(=O)C(C)(C)Nc1nc(-c2c[nH]c3ncc(Cl)cc23)nc2cc(OC)c(OC)cc12 [Compound 223]
JAK3
  Ki: ≥ 0.1 µM

## O=C(NCC(F)(F)F)[C@@H]1CCCN1c1nc(-c2c[nH]c3ncccc23)ncc1F [Compound 310]
JAK3
  Ki: ≥ 0.1 µM
JAK-2 enzyme
  Ki: ≥ 0.5 µM

## CNC(=O)c1cc(N2CCC[C@@H]2C(=O)NCC(F)(F)F)nc(-c2c[nH]c3ncc(Cl)cc23)n1 [Compound 317]
JAK3
  Ki: ≥ 0.1 µM
JAK-2 enzyme
  Ki: ≥ 0.5 µM

## CCNC(=O)c1cc(N2CCC[C@@H]2C(=O)NCC(F)(F)F)nc(-c2c[nH]c3ncc(Cl)cc23)n1 [Compound 318]
JAK3
  Ki: ≥ 0.1 µM
JAK-2 enzyme
  Ki: ≥ 5 µM

## CCCNC(=O)c1cc(N2CCC[C@@H]2C(=O)NCC(F)(F)F)nc(-c2c[nH]c3ncc(Cl)cc23)n1 [Compound 319]
JAK3
  Ki: ≥ 2 µM
JAK-2 enzyme
  Ki: ≥ 5 µM

## O=C(NC1CC1)c1cc(N2CCC[C@@H]2C(=O)NCC(F)(F)F)nc(-c2c[nH]c3ncc(Cl)cc23)n1 [Compound 320]
JAK3
  Ki: ≥ 0.1 µM
JAK-2 enzyme
  Ki: ≥ 0.5 µM

## O=C(NCC(F)(F)F)[C@@H]1CNCCN1c1nc(-c2c[nH]c3ncccc23)ncc1F [Compound 321]
JAK3
  Ki: ≥ 0.1 µM
JAK-2 enzyme
  Ki: ≥ 0.5 µM

## CC(C)NC(=O)[C@H]1CCCN1c1nc(-c2c[nH]c3ncc(Cl)cc23)ncc1F [Compound 322]
JAK3
  Ki: ≥ 0.1 µM

## CC(C)(Nc1nc(-c2c[nH]c3ncc(Cl)cc23)ncc1C#N)C(=O)NCCC(F)(F)F [Compound 326]
JAK3
  Ki: ≥ 0.1 µM

## CCN(C)C(=O)[C@H]1CCCN1c1nc(-c2c[nH]c3ncc(Cl)cc23)ncc1F [Compound 336]
JAK3
  Ki: ≥ 0.1 µM
JAK-2 enzyme
  Ki: ≥ 0.5 µM

## CCN(C)C(=O)[C@H]1CCCN1c1ccnc(-c2c[nH]c3ncc(Cl)cc23)n1 [Compound 337]
JAK3
  Ki: ≥ 0.1 µM

## CCOC(=O)c1cnc(-c2c[nH]c3ncc(Cl)cc23)nc1N1CCC[C@@H]1C(=O)N(C)CC(F)(F)F [Compound 338]
JAK3
  Ki: ≥ 0.1 µM
JAK-2 enzyme
  Ki: ≥ 0.5 µM

## CN(CC(F)(F)F)C(=O)[C@H]1CCCN1c1nc(-c2c[nH]c3ncccc23)ncc1O [Compound 339]
JAK3
  Ki: ≥ 0.1 µM
JAK-2 enzyme
  Ki: ≥ 0.5 µM

## CN(CC(F)(F)F)C(=O)[C@H]1CCCN1c1nc(-c2c[nH]c3ncc(Cl)cc23)ncc1O [Compound 340]
JAK3
  Ki: ≥ 0.1 µM
JAK-2 enzyme
  Ki: ≥ 0.5 µM

## CCC(CC)(Nc1ccnc(-c2c[nH]c3ncccc23)n1)C(=O)NCC(F)(F)F [Compound 348]
JAK-2 enzyme
  Ki: ≥ 0.5 µM

## O=C(NCC(F)(F)F)[C@H]1C[C@H](O)CN1c1nc(-c2c[nH]c3ncccc23)ncc1F [Compound 351]
JAK3
  Ki: ≥ 0.1 µM
JAK-2 enzyme
  Ki: ≥ 0.5 µM

## CN(c1nc(-c2c[nH]c3ncccc23)ncc1F)C1(C(=O)NCC(F)(F)F)CC1 [Compound 356]
JAK3
  Ki: ≥ 0.1 µM
JAK-2 enzyme
  Ki: ≥ 0.5 µM

## CC(C)[C@@H](Nc1nc(-c2c[nH]c3ncccc23)ncc1F)C(=O)NCC(F)(F)F [Compound 367]
JAK3
  Ki: ≥ 0.1 µM
JAK-2 enzyme
  Ki: ≥ 0.5 µM

## CC(C)CC(=O)N1CCN(c2ccnc(-c3c[nH]c4ncccc34)n2)[C@@H](C(=O)NCC(F)(F)F)C1 [Compound 369]
JAK3
  Ki: ≥ 0.1 µM

## CC(C)(C)CC(=O)N1CCN(c2ccnc(-c3c[nH]c4ncccc34)n2)[C@@H](C(=O)NCC(F)(F)F)C1 [Compound 370]
JAK3
  Ki: ≥ 0.1 µM

## CCCNC(=O)N1CCN(c2ccnc(-c3c[nH]c4ncccc34)n2)[C@@H](C(=O)NCC(F)(F)F)C1 [Compound 372]
JAK-2 enzyme
  Ki: ≥ 0.5 µM

## COc1cc2nc(-c3c[nH]c4ncccc34)nc(NC(C)(C)C(=O)NCCF)c2cc1OC [Compound 388]
JAK3
  Ki: ≥ 0.1 µM

## COc1cc2nc(-c3c[nH]c4ncccc34)nc(NC(C)(C)C(=O)NCC(F)F)c2cc1OC [Compound 390]
JAK3
  Ki: ≥ 0.1 µM
